The record followed here is the supplement of paper PMC12137928.

The subject of this test is HCT116. As to conditions: 72 h. Summed up: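 Luminescence was read with CellTiter-Glo in HCT116 cells seeded at 250 per well in 1536-well plates. Signals were scaled between vehicle at 0% and positive control at -100%, then pattern-corrected. IC50 and maximal efficacy were obtained by fitting a four-parameter Hill equation.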

Molecules are shown by their SMILES. Counter-ions that a name gives are not always drawn.

Turning to `CC(=O)OCC(=O)[C@@]1(O)[C@H](C)C[C@H]2[C@@H]3C[C@H](F)C4=CC(=O)C=C[C@]4(C)[C@H]3[C@@H](O)C[C@@]21C` [Paramethasone acetate], the IC50 cell viability is, setting by setting: (ICRF193 0 nM) above 45.8 µM; (ICRF193 200 nM) above 45.8 µM.
For the compound `CN1[C@@H]2CCC(C)(C)[C@H]1C[C@H](OC(=O)C(O)(c1cccs1)c1cccs1)C2` [Mazaticol], the IC50 cell viability reads like this: (ICRF193 0 nM) above 45.8 µM; (ICRF193 200 nM) above 45.8 µM.
In the case of `OC(Cn1cncn1)(Cn1cncn1)c1ccc(F)cc1F` [Fluconazole], the IC50 cell viability by setting is: (ICRF193 0 nM) above 45.8 µM; (ICRF193 200 nM) above 45.8 µM.
For `CN1CC(O)c2cc(N=NC(=N)N)c(O)cc21` (stereo unspecified) [ADRENOCHROME MONOAMINOGUANIDINE MESILATE ANHYDROUS], the IC50 cell viability is, setting by setting: (ICRF193 0 nM) above 45.8 µM; (ICRF193 200 nM) above 45.8 µM.
Take `C=CC=CCC1=C(C)C(OC(=O)C2C(C=C(C)C)C2(C)C)CC1=O` (stereo unspecified) [Pyrethrin 1]: the IC50 cell viability reads like this: (ICRF193 0 nM) above 45.8 µM; (ICRF193 200 nM) above 45.8 µM.
Take `COc1ccc(NC(=O)c2ccc(C(=N)N(C)C)cc2)c(C(=O)Nc2ccc(Cl)cn2)c1` [Betrixaban]: the IC50 cell viability is, setting by setting: (ICRF193 0 nM) above 45.8 µM; (ICRF193 200 nM) above 45.8 µM.
Regarding `CN1CCC2=C(C1)C(c1ccccc1)c1ccccc12` (stereo unspecified) [PHENINDAMINE], the IC50 cell viability (ICRF193 0 nM) was above 45.8 µM and the IC50 cell viability (ICRF193 200 nM) was above 45.8 µM.
With `CC1(C)S[C@@H]2[C@H](NC(=O)Cc3ccccc3)C(=O)N2[C@H]1C(=O)O` [Penicillin G Sodium], the IC50 cell viability was above 45.8 µM (ICRF193 0 nM) and above 45.8 µM (ICRF193 200 nM).
Compound `COC(=O)c1cccnc1` [Methyl nicotinate] yielded an IC50 cell viability (ICRF193 0 nM) above 45.8 µM and an IC50 cell viability (ICRF193 200 nM) above 45.8 µM.
Turning to `CC(=NNC(=O)c1ccncc1)C(=O)O` [Isoniazid pyruvate], the IC50 cell viability is above 45.8 µM (ICRF193 0 nM) and above 45.8 µM (ICRF193 200 nM).
On to `CC1=C(/C=C/C(C)=C/C=C/C(C)=C/C=C/C=C(C)/C=C/C=C(C)/C=C/C2=C(C)CCCC2(C)C)C(C)(C)CCC1` [beta-Carotene], for which the IC50 cell viability is above 45.8 µM (ICRF193 0 nM) and above 45.8 µM (ICRF193 200 nM).
On to `CC1COC2(c3ccccc3Cl)c3cc(Cl)ccc3NC(=O)CN12` (stereo unspecified) [Mexazolam], for which the IC50 cell viability is above 45.8 µM (ICRF193 0 nM) and above 45.8 µM (ICRF193 200 nM).
`O=C([O-])[C@H]1/C(=C/CO)O[C@@H]2CC(=O)N21.[Li+]` [CLAVULANATE LITHIUM]: the IC50 cell viability is, setting by setting: (ICRF193 0 nM) above 45.8 µM; (ICRF193 200 nM) above 45.8 µM.
For `CC(C)COC(=O)OCN1C(=O)CN(CCN2CC(=O)N(COC(=O)OCC(C)C)C(=O)C2)CC1=O` [Sobuzoxane], the IC50 cell viability was above 45.8 µM (ICRF193 0 nM) and above 45.8 µM (ICRF193 200 nM).
With `CCC1(c2ccc(N)cc2)CCC(=O)NC1=O` (stereo unspecified) [Aminoglutethimide], the IC50 cell viability was above 45.8 µM (ICRF193 0 nM) and above 45.8 µM (ICRF193 200 nM).
`C[N+](C)(C)CCO.[Cl-]` [Choline Chloride]: the IC50 cell viability runs as follows: (ICRF193 0 nM) above 45.8 µM; (ICRF193 200 nM) above 45.8 µM.
With `O=C1OC(c2ccc(O)c(S(=O)(=O)O)c2)(c2ccc(O)c(S(=O)(=O)O)c2)c2c(Br)c(Br)c(Br)c(Br)c21` [Sulfobromophthalein], the IC50 cell viability by setting is: (ICRF193 0 nM) above 45.8 µM; (ICRF193 200 nM) above 45.8 µM.
With `Nc1cccc2c1CN(C1CCC(=O)NC1=O)C2=O` (stereo unspecified) [Lenalidomide], the IC50 cell viability by setting is: (ICRF193 0 nM) above 45.8 µM; (ICRF193 200 nM) above 45.8 µM.
With `CC1=C(C)C(=O)C(C(CCCCCC(=O)O)c2ccccc2)=C(C)C1=O` (stereo unspecified) [Seratrodast], the IC50 cell viability is, setting by setting: (ICRF193 0 nM) above 45.8 µM; (ICRF193 200 nM) above 45.8 µM.
With `Cc1cccc(Cc2c[nH]cn2)c1C` [Detomidine hydrochloride], the IC50 cell viability (ICRF193 0 nM) was above 45.8 µM and the IC50 cell viability (ICRF193 200 nM) is above 45.8 µM.
Consider `CC(O)COc1ccccc1` (stereo unspecified) [1-Phenoxy-2-propanol], for which the IC50 cell viability is, setting by setting: (ICRF193 0 nM) above 45.8 µM; (ICRF193 200 nM) above 45.8 µM.
As for `O=P(O)(O)OC(CO)CO` [beta-Glycerol phosphate disodium salt pentahydrate], the IC50 cell viability reads like this: (ICRF193 0 nM) above 45.8 µM; (ICRF193 200 nM) above 45.8 µM.
Regarding `Cc1c(I)c(=O)n(-c2ccccc2)n1C` [Iodoantipyrine], the IC50 cell viability is, setting by setting: (ICRF193 0 nM) above 45.8 µM; (ICRF193 200 nM) above 45.8 µM.
The compound `FC(F)(F)C(F)(F)C(F)(F)C(F)(F)C(F)(F)C(F)(F)F` [Perflexane] had an IC50 cell viability (ICRF193 0 nM) above 45.8 µM and an IC50 cell viability (ICRF193 200 nM) above 45.8 µM.
`O=S1(=O)OC(c2ccc(O)cc2)(c2ccc(O)cc2)c2ccccc21` [Phenol red]: the IC50 cell viability by setting is: (ICRF193 0 nM) above 45.8 µM; (ICRF193 200 nM) above 45.8 µM.
For the compound `CC(C)[C@H](N)C(=O)O` [L-Valine], the IC50 cell viability by setting is: (ICRF193 0 nM) above 45.8 µM; (ICRF193 200 nM) above 45.8 µM.
Consider `CCOC(=O)c1ccc(NC(=O)CN2CCCCC2)cc1` [Sulcaine], for which the IC50 cell viability reads like this: (ICRF193 0 nM) above 45.8 µM; (ICRF193 200 nM) above 45.8 µM.
Turning to `COc1nc2ccc(Br)cc2cc1[C@@H](c1ccccc1)[C@@](O)(CCN(C)C)c1cccc2ccccc12` [Bedaquiline (TMC-207)], the IC50 cell viability (ICRF193 0 nM) was above 45.8 µM and the IC50 cell viability (ICRF193 200 nM) was above 45.8 µM.
